Reference: US8598160B2, “Cycloalkyl lactame derivatives as inhibitors of 11-beta-hydroxysteroid dehydrogenase 1” (Vitae Pharmaceuticals, Inc., priority 2008, dated 2013)

Target: human 11β-HSD1 (Homo sapiens, UniProt P28845)
Test: biochemical
Conditions: for inhibition at 0.1 µM: read-out: Average % inhibition at 100 nM; for inhibition at 0.1111 µM: read-out: Average % inhibition at 111.1 nM
Experimental: All reactions were carried out at rt in 96 well clear flexible PET Microbeta plates (PerkinElmer). […] The reaction was stopped by adding 50 μl of the SPA beads suspension containing 10 μM 18β-glycyrrhetinic acid, 5 mg/ml protein A coated YSi SPA beads (GE Healthcare) and 3.3 μg/ml of anti-cortisol antibody (East Coast Biologics) in Superblock buffer (Bio-Rad). The plates were shaken for 120 minutes at rt, and the SPA signal corresponding to [^3H]cortisol was measured on a Microbeta plate reader.

Chain of human 11β-HSD1 (P28845 whole entry): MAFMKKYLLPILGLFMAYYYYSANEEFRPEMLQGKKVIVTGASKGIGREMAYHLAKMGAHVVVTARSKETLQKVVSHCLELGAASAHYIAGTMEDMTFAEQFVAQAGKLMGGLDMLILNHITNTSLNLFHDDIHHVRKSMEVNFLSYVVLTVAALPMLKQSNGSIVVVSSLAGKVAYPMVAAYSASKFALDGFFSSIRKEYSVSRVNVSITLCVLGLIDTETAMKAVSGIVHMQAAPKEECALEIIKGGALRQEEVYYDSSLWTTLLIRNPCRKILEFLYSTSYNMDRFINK

SMILES | IC50 | inhibition at 0.1 µM | inhibition at 0.1111 µM
C[C@@H](c1ccc(Br)cc1)N1CCCC(c2ccccc2)NC1=O (stereo partly drawn) [Example 8, 1-((S)-1-(4-bromophenyl)ethyl)-4-phenyl-1,3-diazepan-2-one] | < 100 nM | 100% | –
O=C1O[C@@H](c2ccccc2)CCN1c1cccc2ccccc12 [Example 3, (R)-3-(naphthalen-1-yl)-6-phenyl-1,3-oxazinan-2-one] | 100 to 1000 nM | – | -5.9%
C[C@@H](c1ccc(Br)cc1)N1CCC(c2ccc(F)cc2)OC1=O (mixture of isomers) [Example 7, 3-((1S)-1-(4-bromophenyl)ethyl)-6-(4-fluorophenyl)-1,3-oxazinan-2-one] | < 100 nM | 90.1% | –
COc1ccc([C@H](C)N2CCC(c3ccc(F)cc3)CC2=O)cc1 (stereo partly drawn) [Example 6, 4(-4-fluorophenyl)-1-((1S)-1-(4-methoxylphenyl)ethyl)piperidin-2-one] | < 100 nM | 89.4% | –
C[C@@H](c1ccc(-c2ccc(F)cc2F)cc1)N1CCC(c2ccccc2)CC1=O (mixture of isomers) [Example 5, 1-((1S)-1-(2′,4′-difluorobiphenyl-4-yl)ethyl)-4-phenylpiperidin-2-one] | < 100 nM | 94.5% | –
O=C1OC(c2ccccc2Cl)CCN1c1cccc(Br)c1 (stereo not drawn) [Example 4, 3-(3-bromophenyl)-6-(2-chlorophenyl)-1,3-oxazinan-2-one] | 100 to 1000 nM | – | 22.5%
